For one test, the target named is T1, Aurora A (Homo sapiens, UniProt O14965).
T1 construct: histidine tag (N); made in house; host or cells: Escherichia coli BL21-CodonPlus(DE3)-RIL
T1 sequence (O14965 1-403): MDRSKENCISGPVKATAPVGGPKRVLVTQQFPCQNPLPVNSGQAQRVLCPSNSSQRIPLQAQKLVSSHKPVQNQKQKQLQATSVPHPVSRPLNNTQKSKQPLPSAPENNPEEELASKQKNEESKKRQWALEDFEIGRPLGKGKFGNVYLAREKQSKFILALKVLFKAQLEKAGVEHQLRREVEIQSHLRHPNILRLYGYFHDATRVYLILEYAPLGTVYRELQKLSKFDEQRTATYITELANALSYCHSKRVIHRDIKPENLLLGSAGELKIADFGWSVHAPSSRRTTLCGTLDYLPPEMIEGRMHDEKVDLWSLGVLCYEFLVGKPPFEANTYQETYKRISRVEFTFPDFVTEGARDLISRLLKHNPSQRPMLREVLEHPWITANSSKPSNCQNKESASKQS
The experiment in a line: Aurora A inhibitory action (33P-ATP kinase assay, Kemptide substrate). It counts as biochemical. The conditions noted are these: 20 μM ATP, 30° C., 20 minutes. A digest of the protocol:
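His-tagged Aurora A expressed in E. coli, Ni-purified; reaction in 50 mM Tris pH 7.4, 15 mM Mg acetate, 0.2 mM EDTA with 100 μM Kemptide, 20 μM ATP plus [γ-33P]ATP, 20 min at 30 °C. Phosphopeptide captured on P81 filters and counted by scintillation; DMSO control.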

The next test deals with T2, Aurora B (Homo sapiens, UniProt Q96GD4).
T2 construct: histidine tag (N); made in house; host or cells: Escherichia coli BL21-CodonPlus(DE3)-RIL
T2 sequence (Q96GD4 whole entry): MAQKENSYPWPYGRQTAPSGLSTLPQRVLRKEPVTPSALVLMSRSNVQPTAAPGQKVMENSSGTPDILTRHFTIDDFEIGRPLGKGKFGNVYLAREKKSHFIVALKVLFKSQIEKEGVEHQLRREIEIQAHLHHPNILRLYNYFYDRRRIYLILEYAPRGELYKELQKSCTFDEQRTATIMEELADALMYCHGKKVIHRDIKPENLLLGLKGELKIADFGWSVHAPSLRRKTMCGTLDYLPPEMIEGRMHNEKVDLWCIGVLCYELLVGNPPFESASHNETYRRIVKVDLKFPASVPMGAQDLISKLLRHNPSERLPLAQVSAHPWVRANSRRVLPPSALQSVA
The experiment in a line: Aurora B inhibitory action (33P-ATP kinase assay, Kemptide substrate). It counts as biochemical. The conditions noted are these: 100 μM ATP, 30° C., 20 minutes. A digest of the protocol:
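His-tagged Aurora B expressed in E. coli, reacted with 100 μM Kemptide, 100 μM ATP plus [γ-33P]ATP in Tris pH 7.4, 15 mM Mg acetate, 0.2 mM EDTA, 30 °C, 20 min. Peptide captured on P81 filters for scintillation counting; compounds added from DMSO dilutions.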

Test [1] has as its system Human cervical cancer cells (HeLa S3). As to the kind of experiment: Cell growth inhibitory effect, WST-8 method. The conditions noted are these: 72 h, HeLa S3, three days incubation. It counts as cell-based. From the text:
Method for Judging the Pharmaceutical Effect Using cells
Fetal calf serum (FCS) was purchased from Moregate Biotech, and DMEM medium was purchased from Invitrogen Corp. WST-8 was purchased from Kishida Chemical Co., Ltd.
(§1) Human cervical cancer cells (HeLa S3) were obtained from the American Type Culture Collection (ATCC).
(§2) c) Method of Judging the Effect
Cells were suspended in a DMEM medium containing 10% FCS, and the cell suspension was dispensed to a 96-well plastic plate at a rate of 750 cells/l 00 microliters per well. The plate was incubated overnight in 5% CO2-95% air at 37° C. A drug was subjected to graded dilution in dimethylsulfoxide and further diluted with a DMEM medium containing 10% FCS. Then, the dilution was dispensed to the plate on which cells had been disseminated, at a rate of 100 microliters per well. The plate was incubated for further three days in 5% CO2-95% air at 37° C. Cell growth after incubation was measured by the WST-8 method (H. Tominaga, et al., Anal. Commun., 36, 47-50 (1999)). Here, the WST-8 method refers to a method in which 20 microliters of a WST-8 reagent solution is added to each well, incubation is conducted at 37° C. for 45 minutes, the plate is stirred, and the amount of formazan produced is measured by a calorimetric method to determine the inhibitory rate of the drug. The concentration for 50% growth inhibition (EC50, IM) of the compound was determined.
Background: Tetrazolium dyes change colour on reduction, which living cells bring about.

For test [2] the test system is unchanged. As to the kind of experiment: Effect by combined use of drugs in cells (with paclitaxel), WST-8 method. The format is cell-based. Conditions: three days; for inhibition at 3 µM: HeLa S3, compound 3.0 μM alone; for inhibition at 3 µM / inhibition at 1 µM / inhibition at 0.1 µM / inhibition at 0.3 µM: read-out: Cell growth inhibitory effect by sole administration of the compound of Example (%); for inhibition at 1 µM: HeLa S3, compound 1.0 μM alone; for inhibition at 0.1 µM: HeLa S3, compound 0.1 μM alone; for inhibition at 0.3 µM: HeLa S3, compound 0.3 μM alone.
Excerpt: Method for Judging the Effect by Combined Use of Drugs in Cells
Fetal calf serum (FCS) was purchased from Moregate Biotech, DMEM medium from Invitrogen Corp., paclitaxel (tradename: Taxol) from Sigma-Aldrich, Inc., and WST-8 from Kishida Chemical Co., Ltd.
as §1, §2
Cells were suspended in a DMEM medium containing 10% FCS, and the cell suspension was dispensed to two 96-well plastic plates at a rate of 750 cells/100 microliters per well. The plates were incubated overnight in 5% CO2-95% air at 37° C. A drug was subjected to graded dilution in dimethylsulfoxide and flurther diluted with DMSO or with a DMEM medium containing 10% FCS and also containing 2 nM paclitaxel. Then, the dilutions were each dispensed to one of the plates on which cells had been disseminated, at a rate of 100 microliters per well. The final concentration of paclitaxel at this stage was 1 nM. Also, the concentrations in the case of sole administration of the compound according to the invention were 0.03, 0.1, 0.3, 1 and 3 μM. The plates were incubated for further three days in 5% CO2-95% air at 37° C. Cell growth after incubation was measured by the WST-8 method (H. Tominaga, et al., Anal. Commun., 36, 47-50 (1999)). Here, the WST-8 method refers to a method in which 20 microliters of a WST-8 reagent solution is added to each well, incubation is conducted at 37° C. for 45 minutes, the plate is stirred, and the amount of formazan produced is measured by a colorimetric method to determine the inhibitory rate of the drug. The growth inhibitory effects of paclitaxel and of the compound according to the invention were determined, with the value obtained in sole treatment of DMSO being defined as 0%.

The mark [3] stands for this setting: HeLa S3, compound 3.0 μM + paclitaxel 1 nM.
[4] abbreviates: HeLa S3, compound 1.0 μM + paclitaxel 1 nM.
[5] abbreviates: HeLa S3, compound 0.1 μM + paclitaxel 1 nM.
Where [6] appears, read: HeLa S3, compound 0.3 μM + paclitaxel 1 nM.

“And” between values parts separate entries of the source, which are not always exact repeats. Identical values can stand only once.

For `O=C(O)C(F)(F)F.O=C(c1cccc(Cl)c1Cl)N1CCN(Cc2cccc(Nc3ncns3)n2)CC1` [Example 36, 6-((4-(2,3-dichlorobenzoyl)piperazin-1-yl)methyl)-N-1,2,4-thiadiazol-5-ylpyridin-2-amine trifluoroacetate], the IC50 came out at 2.6 nM against Aurora A, 3200 nM at Aurora B and 6800 nM in test [1]. The “Cell growth inhibitory effect by combined administration of paclitaxel and the compound of Example (%)” value (“Cell growth inhibitory effect … of Example (%)” for short) in test [2] (setting [3]) was 83.4%. Moreover, in test [2] (Homo sapiens, HeLa S3, 72 h), the inhibition at 3 µM turned out to be 17.2%.

Consider `O=C(c1ccccc1C(F)(F)F)N1CCN(Cc2cccc(Nc3ncns3)n2)CC1` [Example 39, 6-((4-(2-(trifluoromethyl)benzoyl)piperazin-1-yl)methyl)-N-1,2,4-thiadiazol-5-ylpyridin-2-amine], for which the IC50 against Aurora A is 67 nM; against Aurora B it was 9100 nM; in test [1], 11000 nM. In addition, in test [2] (setting [3]), the “Cell growth inhibitory effect … of Example (%)” value is 72.2%. The inhibition at 3 µM in test [2] (Homo sapiens, HeLa S3, 72 h) is 5.4%.

In the case of `O=C(c1cccc(C(F)F)c1F)N1CCN(Cc2cccc(Nc3cc[nH]n3)n2)CC1` [Example 22, 6-((4-(3-(difluoromethyl)-2-fluorobenzoyl)piperazin-1-yl)methyl)-N-1H-pyrazol-3-ylpyridin-2-amine], the IC50 on Aurora A is 2.9 nM; against Aurora B, 1500 nM; in test [1], 3500 nM. Also, the “Cell growth inhibitory effect … of Example (%)” value in test [2] (setting [4]) is listed as 80.9%. The inhibition at 1 µM in test [2] (Homo sapiens, HeLa S3, 72 h) was 18.5%.

For `O=C(c1cccc(Cl)c1F)N1CCN(Cc2cc(CO)cc(Nc3nccs3)n2)CC1` [Example 89, (2-((4-(3-chloro-2-fluorobenzoyl)piperazin-1-yl)methyl)-6-(thiazol-2-ylamino)pyridin-4-yl)methanol], the IC50 on Aurora A is 0.38 nM; against Aurora B, 200 nM; in test [1], 360 nM. In addition, in test [2] (setting [5]), the “Cell growth inhibitory effect … of Example (%)” value is on record as 85.8%. The inhibition at 0.1 µM in test [2] (Homo sapiens, HeLa S3, 72 h) stood at 19.1%.

With `Cc1nc(C(=O)N2CCN(Cc3cccc(Nc4ncc(Cl)s4)n3)CC2)cs1` [Example 68, 6-((4-((2-methyl-thiazol-4-yl)carbonyl)piperazin-1-yl)methyl)-N-(5-chlorothiazol-2-yl)pyridin-2-amine], the IC50 was found to be 11 nM against Aurora A, 670 nM at Aurora B and 5100 nM in test [1]. In addition, the “Cell growth inhibitory effect … of Example (%)” value in test [2] (setting [3]) is on record as 71.8%. Besides, the inhibition at 3 µM in test [2] (Homo sapiens, HeLa S3, 72 h) amounted to 27.3%.

As to `O=C(c1ccco1)N1CCN(Cc2cccc(Nc3ncc(Cl)s3)n2)CC1` [Example 62], the IC50 turned out to be 12 nM on Aurora A, 380 nM against Aurora B and 860 nM in test [1]. In addition, the “Cell growth inhibitory effect … of Example (%)” value in test [2] (setting [5]) is 68.0%. In addition, the inhibition at 0.1 µM in test [2] (Homo sapiens, HeLa S3, 72 h) was 2.9%.

Regarding `CC(=O)O[C@H]1C(=O)[C@@]2(C)[C@H]([C@H](OC(=O)c3ccccc3)[C@]3(O)C[C@H](OC(=O)[C@H](O)[C@@H](NC(=O)c4ccccc4)c4ccccc4)C(C)=C1C3(C)C)[C@]1(OC(C)=O)CO[C@@H]1C[C@@H]2O` [paclitaxel, reference compound], the “Cell growth inhibitory effect by sole administration of paclitaxel (1 nM) (%)” value in test [2] (HeLa S3, paclitaxel 1 nM alone) was 37.8% and 45.4% and 43.3% and 36.8%. The inhibition at 0.001 µM in test [2] (Homo sapiens, HeLa S3, 72 h, HeLa S3, paclitaxel 1 nM alone, read-out: Cell growth inhibitory effect by sole administration of paclitaxel (1 nM) (%)) is 44.1%.

For the molecule `Cc1cc(Nc2cccc(CN3CCN(C(=O)c4cccc(Br)c4F)CC3)n2)n[nH]1` [Example 28, 6-((4-(3-bromo-2-fluorobenzoyl)piperazin-1-yl)methyl)-N-(5-methyl-1H-pyrazol-3-yl)pyridin-2-amine], the IC50 was 0.52 nM at Aurora A, 310 nM at Aurora B and 1100 nM in test [1]. In addition, the “Cell growth inhibitory effect … of Example (%)” value in test [2] (setting [6]) came out at 84.5%. Also, the inhibition at 0.3 µM in test [2] (Homo sapiens, HeLa S3, 72 h) was determined as 0%.

For the molecule `O=C(c1cccc(Cl)c1F)N1CCN(Cc2cncc(Nc3nccs3)n2)CC1` [Example 58, 6-((4-(3-chloro-2-fluorobenzoyl)piperazin-1-yl)methyl)-N-thiazol-2-ylpyrazin-2-amine], the IC50 at Aurora A was found to be 4.8 nM; against Aurora B it was 9900 nM; in test [1], 3000 nM. Further, the “Cell growth inhibitory effect … of Example (%)” value in test [2] (setting [4]) is given as 81.4%. In addition, in test [2] (Homo sapiens, HeLa S3, 72 h), the inhibition at 1 µM was found to be 0%.

As to `O=C(O)C(F)(F)F.O=C(c1cccc(C(F)(F)F)c1F)N1CCN(Cc2cccc(Nc3cc[nH]n3)n2)CC1` [Example 19, 6-((4-(2-fluoro-3-(trifluoromethyl)benzoyl)piperazin-1-yl)methyl)-N-1H-pyrazol-3-ylpyridin-2-amine trifluoroacetate], the IC50 against Aurora A was 0.9 nM; against Aurora B, 530 nM; in test [1] it was 920 nM. For the same molecule, in test [2] (setting [5]), the “Cell growth inhibitory effect … of Example (%)” value is given as 77.6%. Moreover, the inhibition at 0.1 µM in test [2] (Homo sapiens, HeLa S3, 72 h) was 0%.

Regarding `O=C(c1cccc(Cl)c1Cl)N1CCN(Cc2cccc(Nc3cc[nH]n3)n2)CC1` [Example 17, 6-((4-(2,3-dichlorobenzoyl)piperazin-1-yl)methyl)-N-1H-pyrazol-3-ylpyridin-2-amine], the IC50 against Aurora A was 1.2 nM; at Aurora B it was 3200 nM; in test [1], 1100 nM. The “Cell growth inhibitory effect … of Example (%)” value in test [2] (setting [6]) amounted to 73.8%. In addition, in test [2] (Homo sapiens, HeLa S3, 72 h), the inhibition at 0.3 µM is 0%.

As to `O=C(c1cccc(C(F)(F)F)c1F)N1CCN(Cc2cncc(Nc3cc[nH]n3)n2)CC(O)C1` (stereo not drawn) [Example 55, 6-((4-(2-fluoro-3-(trifluoromethyl)benzoyl)-6-hydroxy-1,4-diazepan-1-yl)methyl)-N-1H-pyrazol-3-ylpyrazin-2-arnine], the IC50 on Aurora A came to 20 nM; at Aurora B, 7400 nM.

What is called IC50 is the concentration at which inhibition is half-maximal. High values mean a need for much substance, low ones inhibition by little substance.

(Values after patent US20080027042A1, “Novel Aminopyridine Derivatives Having Aurora a Selective Inhibitory Action” (priority 2004, published 2008).)
